According to ChEMBL document CHEMBL4152348, “Discovery of a Potent and Orally Bioavailable Cyclophilin Inhibitor Derived from the Sanglifehrin Macrocycle” (J Med Chem, 2018):

Experiments:
[1] = Half life in rat plasma at 2 uM up to 4 hrs by LC/MS/MS analysis; assay type: ADME, cell-free
[2] = Half life in human plasma at 2 uM up to 4 hrs by LC/MS/MS analysis; assay type: ADME, cell-free
[3] = Apparent permeability across basolateral to apical side in human Caco2 cells measured at 60 to 120 mins by LC/MS/MS analysis; assay type: ADME, cell-based; conditions: for Papp B→A: Caco-2, read-out: permeability; for permeability: Caco-2
[4] = Half life in dog plasma at 2 uM up to 4 hrs by LC/MS/MS analysis; assay type: ADME, cell-free, Canis lupus familiaris
[5] = Lipophilicity, log D of the compound at pH 7.4 after 30 mins by HPLC/UV analysis; assay type: physicochemical; conditions: buffer
[6] = Apparent permeability across apical to basolateral side in human Caco2 cells measured at 60 to 120 mins by LC/MS/MS analysis; assay type: ADME, cell-based; conditions: for Papp A→B: Caco-2, read-out: permeability; for permeability: Caco-2
[7] = Terminal half life in Sprague-Dawley rat at 1 mg/kg, iv or 5 mg/kg, po by HPLC/MS analysis; assay type: ADME, organism-based; conditions: in vivo, read-out: beta t1/2 (converted)
[8] = Oral bioavailability in Sprague-Dawley rat at 5 mg/kg by HPLC/MS analysis; assay type: ADME, organism-based; conditions: in vivo
[9] = Clearance in Beagle dog at 1 mg/kg, iv or 5 mg/kg, po by HPLC/MS analysis; assay type: ADME, organism-based, Canis lupus familiaris; conditions: in vivo
[10] = Volume of distribution at steady state in Beagle dog at 1 mg/kg, iv or 5 mg/kg, po by HPLC/MS analysis; assay type: ADME, organism-based, Canis lupus familiaris; conditions: in vivo, read-out: Vdss
[11] = Oral bioavailability in Beagle dog at 5 mg/kg by HPLC/MS analysis; assay type: ADME, organism-based, Canis lupus familiaris; conditions: in vivo
[12] = Clearance in Sprague-Dawley rat at 1 mg/kg, iv or 5 mg/kg, po by HPLC/MS analysis; assay type: ADME, organism-based; conditions: in vivo
[13] = Volume of distribution at steady state in Sprague-Dawley rat at 1 mg/kg, iv or 5 mg/kg, po by HPLC/MS analysis; assay type: ADME, organism-based; conditions: in vivo, read-out: Vdss
[14] = Terminal half life in Beagle dog at 1 mg/kg, iv or 5 mg/kg, po by HPLC/MS analysis; assay type: ADME, organism-based, Canis lupus familiaris; conditions: in vivo, read-out: beta t1/2 (converted)
[15] = Aqueous solubility of the compound at pH 7.2; assay type: physicochemical
[16] = Oral bioavailability in Sprague-Dawley rat at 10 mg/kg by HPLC/MS analysis; assay type: ADME, organism-based; conditions: in vivo
[17] = Volume of distribution at steady state in Sprague-Dawley rat at 10 mg/kg, iv or 10 mg/kg, po by HPLC/MS analysis; assay type: ADME, organism-based; conditions: in vivo, read-out: Vdss
[18] = Clearance in Sprague-Dawley rat at 10 mg/kg, iv or 10 mg/kg, po by HPLC/MS analysis; assay type: ADME, organism-based; conditions: in vivo
[19] = Terminal half life in Sprague-Dawley rat at 10 mg/kg, iv or 10 mg/kg, po by HPLC/MS analysis; assay type: ADME, organism-based; conditions: in vivo, read-out: beta t1/2 (converted)

Row | half-life at 2 µM [1] [h] | half-life at 2 µM [2] [h] | Papp B→A [3] [×10⁻⁶ cm/s] | half-life at 2 µM [4] [h] | logD at 0.5 h [5] | Papp A→B [6] [×10⁻⁶ cm/s] | Structure (SMILES) | also measured
1 | 9.4 | > 25 | 7.9 | 12.2 | 2 | 0.1 | CC(C)[C@@H]1OC(=O)C(C)(C)/C=C/c2cc3cc(ccc3cn2)[C@@H](C)NC(=O)[C@@H]2CCCN(N2)C(=O)[C@H](C)NC1=O | 
2 |  | > 25 | 38 | > 25 | 2.5 | 6.2 | CC(C)[C@@H]1NC(=O)C/C=C/c2ccc3ccc(cc3c2)[C@@H](C)OC(=O)[C@@H]2CCCN(N2)C(=O)[C@H](C)NC1=O | 
3 | 6.87 | > 25 |  | > 25 | 3.2 |  | CC(C)[C@@H]1OC(=O)C(C)(C)/C=C/c2ccc3ccc(nc3c2)[C@@H](C)NC(=O)[C@@H]2CCCN(N2)C(=O)[C@H](C)NC1=O | half-life [7]: 3.9 h; bioavailability [8]: 90%; clearance [9]: 6 mL/min/kg; Vd [10]: 3.9 L/kg; permeability [3]: 47 ×10⁻⁶ cm/s; bioavailability [11]: 100%; clearance [12]: 10.8 mL/min/kg; Vd [13]: 2.5 L/kg; permeability [6]: 17 ×10⁻⁶ cm/s; half-life [14]: 10 h
4 |  |  | 0.59 |  | 1 | 0.08 | CC(C)[C@@H]1OC(=O)C(CO)(CO)/C=C/c2ccc3ccc(nc3c2)[C@@H](C)NC(=O)[C@@H]2CCCN(N2)C(=O)[C@H](C)NC1=O | 
5 | 0.25 | 17.1 | 21 | > 25 | 2.7 | 2 | CC(C)[C@@H]1NC(=O)C(C)(C)/C=C/c2ccc3ccc(nc3c2)[C@@H](C)OC(=O)[C@@H]2CCCN(N2)C(=O)[C@H](C)NC1=O | solubility [15]: < 6 µg/mL
6 |  |  | 19 |  | 2.4 | 3.2 | CC(C)[C@@H]1OC(=O)C2(/C=C/c3ccc4ccc(nc4c3)[C@@H](C)NC(=O)[C@@H]3CCCN(N3)C(=O)[C@H](C)NC1=O)CCOCC2 | 
7 | 0.133 | > 25 | 25 | > 25 | 1.6 | 0.33 | CC(C)[C@@H]1NC(=O)CC/C=C/c2cc3cc(ccc3cn2)[C@@H](C)OC(=O)[C@@H]2CCCN(N2)C(=O)[C@H](C)NC1=O | 
8 |  | > 25 | 34 | > 25 | 2.1 | 2.3 | CC(C)[C@@H]1NC(=O)C(C)(C)/C=C/c2cc3cc(ccc3cn2)[C@@H](C)OC(=O)[C@@H]2CCCN(N2)C(=O)[C@H](C)NC1=O | solubility [15]: < 6 µg/mL
9 |  |  | 10 |  | 2.1 | 0.72 | CC(C)[C@@H]1OC(=O)C2(/C=C/c3ccc4ccc(nc4c3)[C@@H](C)NC(=O)[C@@H]3CCCN(N3)C(=O)[C@H](C)NC1=O)COCCOC2 | 
10 | > 25 | > 25 | 13 | > 25 | 2.2 | 1.5 | CC(C)[C@@H]1OC(=O)C2(/C=C/c3ccc4ccc(nc4c3)[C@@H](C)NC(=O)[C@@H]3CCCN(N3)C(=O)[C@H](C)NC1=O)COCOC2 | bioavailability [16]: 100%; clearance [9]: 1.33 mL/min/kg; Vd [10]: 2.3 L/kg; Vd [17]: 12 L/kg; clearance [18]: 7 mL/min/kg; bioavailability [11]: 55%; half-life [19]: 24 h; half-life [14]: 25 h
11 |  |  |  |  |  |  | CC(C)[C@@H]1OC(=O)C2(/C=C/c3ccc4ccc(nc4c3)[C@@H](C)NC(=O)[C@@H]3CCCN(N3)C(=O)[C@H](C)NC1=O)CCC(O)CC2 (stereo in doubt; 48) | permeability [3]: 7.1 ×10⁻⁶ cm/s; permeability [6]: 0.9 ×10⁻⁶ cm/s
12 | 0.0833 | > 25 | 31 | 10 | 2.9 | 12 | CO[C@H]1C(=O)N[C@@H](C(C)C)C(=O)N[C@@H](C)C(=O)N2CCC[C@H](N2)C(=O)O[C@H](C)c2cccc(c2)/C=C/CC[C@H]1C | 
13 |  | 8.87 | 3.5 | > 25 | 2.1 | 1.2 | CC(C)[C@@H]1NC(=O)C/C=C/c2ccc3ccc(nc3c2)[C@@H](C)OC(=O)[C@@H]2CCCN(N2)C(=O)[C@H](C)NC1=O | 
14 |  |  | 9.2 |  | 1.9 | 0.61 | CC(C)[C@@H]1OC(=O)C2(/C=C/c3ccc4ccc(nc4c3)[C@@H](C)NC(=O)[C@@H]3CCCN(N3)C(=O)[C@H](C)NC1=O)CCC(O)CC2 (stereo in doubt; 47) | 
15 |  |  | 33 |  | 3.1 | 13 | CO[C@H]1CC[C@@]2(/C=C/c3ccc4ccc(nc4c3)[C@@H](C)NC(=O)[C@@H]3CCCN(N3)C(=O)[C@H](C)NC(=O)[C@H](C(C)C)OC2=O)CC1 | 
16 | 0.133 | 9.32 | 13 | 6.95 | 1.1 | 0.32 | CC(C)[C@@H]1NC(=O)C/C=C/c2cc3cc(ccc3cn2)[C@@H](C)OC(=O)[C@@H]2CCCN(N2)C(=O)[C@H](C)NC1=O | bioavailability [11]: 8%
17 |  |  | 12 |  | 1.9 | 0.48 | CC(C)[C@@H]1OC(=O)C2(/C=C/c3ccc4ccc(nc4c3)[C@@H](C)NC(=O)[C@@H]3CCCN(N3)C(=O)[C@H](C)NC1=O)CCS(=O)(=O)CC2 | 
18 | 0.0833 | 12.5 | 37 | 17.4 | 2.1 | 4.4 | CO[C@@H]1/C=C/c2cc3cc(ccc3cn2)[C@@H](C)OC(=O)[C@@H]2CCCN(N2)C(=O)[C@H](C)NC(=O)[C@H](C(C)C)NC(=O)[C@@H]1C | 
